Measured values taken from ChEMBL document CHEMBL1130980, “Novel antiproliferative falcarindiol furanocoumarin ethers from the root of Angelica japonica” (1998).
Converted amounts (≈) assume the structure as drawn.

Experiment: Inhibitory activity in MTT assay against MK-I cell
Assay type: functional
Settings: Homo sapiens, read-out: ED50 (the source's name)

Row | SMILES | EC50
1 | C=C[C@H](O)C#CC#CC(/C=C\CCCCCCC)OC(C)=O (some centres undefined) | 3.2 µg/mL (≈ 10.6 µM)
2 | C=CC(O)C#CC#CC(O)/C=C\C(O)CCCCCC (centres undefined) | 2.2 µg/mL (≈ 7.96 µM)
3 | C=CC(O)C#CC#C[C@@H](O)/C=C\CCCCCCC (single isomer, unassigned) [FALCARINDIOL] | 3.2 µg/mL (≈ 12.3 µM)
4 | C=C[C@H](O)C#CC#CC/C=C\CCCCCCC [FALCARINOL] | 0.3 µg/mL (≈ 1.23 µM)
